Test results from a melting point compilation (Tetko et al.; mined from patent text by program, amines drawn as free bases though some values may be those of a salt).

Row | melting point [°C] | SMILES
1 | 113 | CCOC(=O)C(C)O/N=C(\C(=O)Sc1nc2ccccc2s1)c1csc(N)n1 (configuration not stated)
2 | 131 to 134 | COc1ccc(Sc2oc3ccc(Cl)cc3c2C)nn1
3 | 68 to 72 | CC#CCOc1ccc(S(=O)(=O)N2CCOCC2C(=O)NO)cc1 (configuration not stated)
4 | 212 to 214 | O=C(NC(=S)NC1CCN(Cc2ccc3ccccc3c2)CC1)c1ccccc1
5 | 218 to 220 | COc1cc(Cn2ccc3ncnc-3c2)ccc1C(=O)N(C1CCCC1)C1CC(C)CC(C)C1 (configuration not stated)
6 | 194 | OCC1(c2nn(Cc3ccccc3F)c3nccnc23)CC=CO1 (configuration not stated)
7 | 142 to 145 | Cn1c(C(F)(F)F)c(C#N)c2ccc(Cl)cc21
8 | 255 | CS(=O)(=O)c1ccc(C(=O)N[C@H]2CC[C@H](CCN3CCC(c4cccc5c4CCO5)CC3)CC2)s1
9 | 166 to 170 | CS(=O)(=O)N1CCN(c2ccc(C(=O)CCc3ccc(N)cc3)cc2)CC1
10 | 93 to 98 | O=C(c1cc(Cl)cc(Cl)c1)N1CCN(Cc2ccccc2)C[C@H]1Cc1c[nH]c2ccccc12
11 | 89 to 93 | Cc1cccc(C=CCC(C(=O)C=Cc2ccc(Cl)cc2)c2ccccc2)c1 (configuration not stated)
12 | 131 to 132 | Cc1c([N+](=O)[O-])cc2c(c1C)OC(C)(C)C2=O
13 | 88 to 89 | O=[N+]([O-])c1ccc2ccccc2c1NCC12CCCN1CCC2
14 | 181 | CC(C)(O)CCOc1c(-c2ccc(S(N)(=O)=O)cc2)cnn(-c2ccc(F)c(F)c2)c1=O
15 | > 250 | O=C(Nc1ccc(F)cc1)NN1CCN(C(=O)Cn2c(=O)sc3ccc(Cl)cc32)CC1
16 | 134 to 137 | Cc1nc(C)c(Cl)c(NCc2nccc(SCCCSCCO)c2C)n1
17 | 107 to 108 | C=C1CC(COc2cccc3cccnc23)(c2ccc(Cl)cc2)OC1=O (configuration not stated)
18 | 110 to 111 | COCCOCC(=O)N1CCC(Oc2cc3ncnc(Nc4cccc(Cl)c4F)c3cc2OC)CC1
19 | 151 to 153 | CNC(=O)N(O)C(C)C#Cc1ccc(Cl)cc1 (configuration not stated)
20 | 300 | Nc1ccc(C=C2NC(=O)NC2=O)cc1
21 | 167 to 168 | CC1(C(=O)O)CCCc2cc(C3CCCCC3)c(Cl)cc21 (configuration not stated)
22 | 81 to 82 | NCCCCCCNc1nsc2nccn12
23 | 132 to 134 | COc1ccc(CCC(=O)c2cccc(O)c2)cc1OC

Row | melting point [°C] | SMILES
24 | 148 to 149 | CCOC(=O)c1c(CN2CCCCC2)nc2cc(OC)c(OC)cc2c1-c1ccc(OC)c(OC)c1
25 | 228 to 230 | O=C(O)Cc1ccnc2c(NC(=O)c3c(Cl)cccc3Cl)cccc12
26 | 156 to 158 | COC(=O)C1CCC2C3CCC4CC(=O)CCC4(C)C3C(NC3CCCC3)CC12C (configuration not stated)
27 | 43 to 44 | CCCCCCCCCCCCCCCC(=O)OCC(COC(=O)CCCCCCCCCCCCCCC)OC(=O)C1C=CC=CC1(O)C(C)=O (configuration not stated)
28 | 68 to 70 | CCN(CC)Cc1nc(Cn2cnc3c2c(=O)n(C)c(=O)n3C)no1
29 | 180 to 181 | COc1cc(COc2nn(-c3ccccc3)cc2/C=C/C(=O)N2CCOCC2)ccc1OCc1nc(-c2ccco2)oc1C
30 | 132 to 136 | Oc1cccc2c1C=CC=CN2
31 | 140 to 144 | OC(CN=CCc1cnc(-c2ccccc2)nc1-c1ccccc1)c1ccccc1 (configuration not stated)
32 | 83 to 85 | O=S(=O)(CCl)Nc1ccc(F)cc1Cl
33 | 176 to 177 | COc1ccc(/C=C/C=C/C(=O)Oc2ccc([N+](=O)[O-])cc2)cc1
34 | 147 to 148 | CCCCC=NNC1=NCCc2ccccc21
35 | 80.5 to 94.5 | O=C1CC2OC(CS(=O)Cc3ccccc3)CN12 (racemic)
36 | 216 to 218 | O=C(Nc1ccc(Cc2ccc(O)c(O)c2)cc1)C1CSc2ccccc2C1=O (configuration not stated)
37 | 134 to 135 | CCCCCOc1cc(C(=O)O)cc(N)c1-c1ccccc1
38 | 132 to 134 | CCCCc1nn(-c2ccccc2C(F)(F)F)c(=O)n1Cc1ccc(-c2ccccc2S(=O)(=O)NS(=O)(=O)C(F)(F)F)cc1
39 | 129 to 132 | c1cnc2c(OCCn3ccc4ccc5c(c43)CCNCC5)cccc2c1
40 | 110 to 113 | CNS(=O)(=O)OCC(COc1ccccc1OC)OS(N)(=O)=O (configuration not stated)
41 | 143 to 144 | CCSc1cccc2c1CC(=O)N2
42 | 161 to 162 | CN(c1cccc2cc(C3=NCC(CN4CCS(=O)CC4)S3)[nH]c12)S(=O)(=O)c1nccn1C (configuration not stated)
43 | 155 to 163 | CC(C)c1nc(CCCO)n(CCO)c1Sc1cc(Cl)cc(Cl)c1
44 | 37 to 38 | CCCCCCCCCCCCCCCC(=O)CC(=O)OCC
45 | 119 | C/C(=C\C(=O)NC1CC1)c1cccc(F)c1
46 | 120 to 121 | COc1cccc(Sc2ccnc(Nc3cc(OC)c(OC)c(OCCN4CCCC4)c3)n2)c1

Row | melting point [°C] | SMILES
47 | 150 to 151 | Cc1ccc2c(c1)C(c1ccccc1)(C(F)(F)F)c1cc(C)ccc1O2
48 | 142 to 145 | COC(=O)c1cccc2c1c(C(C[N+](=O)[O-])C[N+](=O)[O-])cn2C
49 | > 300 | Cc1cc(C(=O)O)cc(C)c1C(=O)O
50 | 236 | COc1cc(NC(=O)Oc2ccccc2)ccc1S(=O)(=O)n1c(=O)n(C2CCCCC2)c2cc(Cl)ccc21
51 | 73 to 74 | COC(=O)[C@@H](NC(=O)c1ccc(F)c(Br)c1)[C@@H](C)O
52 | 131 to 132 | CC(C)(C)OC(=O)CNC(=S)Nc1cccc(C#N)c1
53 | 131 to 133 | CCCCCCCCCC(=O)Oc1ccc(N(CC(=O)O)CC(=O)O)cc1OC(=O)CCCCCCCCC
54 | 104 to 106 | Cc1cc(Oc2ccc(C(F)(F)F)cc2[N+](=O)[O-])nn1C(=O)NC(C)(C)C
55 | 156 to 158 | CN1CC(=O)N(c2ccc(C(C)(C)C)cc2)C1=S
56 | 275 to 277 | CN(Cc1cccc2c1CN(C1CCC(=O)NC1=O)C2=O)C(=O)Nc1ccc(Cl)c(Cl)c1 (configuration not stated)
57 | 129 to 130 | CCCc1c(OCCCOc2ccc(C(=O)C(=O)O)cc2)ccc(C(C)=O)c1O
58 | 245 to 247 | CNS(=O)(=O)c1cccc(-c2cnc3[nH]cc(C(=O)C(C)(C)C)c3n2)c1
59 | 168 to 169 | N#Cc1ncn2c(-c3cccc(C(F)(F)F)c3)ccnc12
60 | 98 to 99 | CCOC(=O)/C=C/c1cc(OCOC)nn1Cc1ccc(Cl)cc1Cl
61 | 68 to 70 | CCC(C)c1cc(C=O)c(O)c(S(C)(=O)=O)c1 (configuration not stated)
62 | 171 to 174 | CCN1CC(=O)N(c2cc(Cl)ccc2OC)C1=S
63 | 162 to 165 | O=C1C=C(c2ccccc2O)CC1
64 | 182 to 183 | COC(=O)CSCC1Cn2cc(C(=O)NCc3ccc(Cl)cc3)c(=O)c3cc(CN4CCOCC4)cc(c32)O1 (configuration not stated)
65 | 162 to 165 | O=C(OCC(Cn1cnc2c(Cl)nc3ccccc3c21)OC(=O)c1ccccc1)c1ccccc1 (configuration not stated)
66 | 51 to 52 | O=C(Nc1ccc(I)cc1Cl)C(F)(F)F
67 | 82 to 84 | CCCCCCC(O)CCCCCCCC(COC(C)=O)(COC(C)=O)NC(C)=O (configuration not stated)

Row | SMILES | melting point [°C]
68 | O=Cc1c(F)cccc1N1CCN(Cc2ccccc2)CC1 | 94 to 95
69 | CN(C)CCc1cn(C)c2c(F)ccc(OCc3ccccc3)c12 | 60 to 62
70 | O=C(Nc1cc(Cl)c([N+](=O)[O-])cc1O)c1ccccc1 | < 250
71 | CC1(C)N=C(c2ccccc2F)c2cc(N)ccc2-n2cnnc21 | 288
72 | CCN1c2ncccc2C(=NOC)Nc2c(C)cc(C)nc21 | 164 to 166
